Assay: Human HepG2 cell viability assay in 384 well format
Type: toxicity, cell-based
Set-up: dose 125 nL, time 70.5 hour; cytotoxicity at 70.5 h: concentration not given beside the values
Conditions: HepG2 cells, read-out: Inhibition

Compound	cytotoxicity at 70.5 h [%]
O=C(c1ccco1)N1CCC(n2nc(-c3ccco3)ccc2=O)CC1	-3.82
COc1cccc(CNc2nc(O)cc(C3CC(=O)N(C)C3)n2)c1 (stereo not given)	-11.6
Cc1nc(-c2noc3ccc(C(=O)NCCN4CCOCC4)cc23)co1	12.2
Cc1nnc(N2CCCC3(CN(Cc4cnn(C)c4)CCO3)C2)o1 (stereo not given)	-5.09
CCN(C(C)=O)C1CCN(c2nccc(CCC(F)(F)F)n2)C1 (stereo not given)	-22.6
CC(=O)N1CCO[C@@H]2CN(S(=O)(=O)c3ccc(F)cc3)CC[C@@H]2C1	-6.92
COCc1nc(CNC(=O)c2cc(C)c(C)[nH]c2=O)no1	2.71
COC(=O)N1CCCC(NC(=O)NCc2ccc(C)nc2)C1 (stereo not given)	-4.96
COc1cccc(CN2C[C@@H]3CC[C@@](O)(c4ccccn4)[C@@H]3C2)c1OC	12.8
COc1ccc2c(=O)n(CC3CC3)ccc2c1OC	2.47
COc1cccc([C@H]2CN(C(=O)c3nnc4n3CCCC4)C[C@@H]2N)c1	-3.91
N#Cc1ccc(NCCS(=O)(=O)N2CCc3ccccc32)nc1	13
COCC(C)(C#N)NC(=O)c1cn(-c2cccc(Cl)c2F)nn1 (stereo not given)	-10.4
CC(C)C(c1cccnc1)N(C)C(=O)Cc1ccc(O)cc1 (stereo not given)	0.393
COc1cc(C)ccc1C(=O)N1C[C@@H](CN(C)CCO)[C@@H](CO)C1	4.4
O=S(=O)(C/C=C/c1ccccc1)Cc1nc(C2CC2)no1	-11.4
Cc1ccc(CNCc2nccn2C)c(OCC2CC2)c1	7.03
CCC1CCC(CNC(=O)c2c[nH]c(=O)c(Cl)c2)CC1 (stereo not given)	-9.94
O=C(C1CC(=O)N(c2ccccc2Br)C1)N1CCN(CC(F)(F)F)CC1 (stereo not given)	-8.32
COC(=O)[C@H](C)NC(=O)COc1nn(C)c2nc(C)cc(C)c12	-16.3
CN1CCCN(C(=O)NCc2ccccc2Cn2cncn2)CC1	-2.94
Cc1nn(C)cc1CN1CCCn2nc(CNC(=O)C3CCC3)cc2C1	-3.2
Cc1cc(C)n(CC2CCCN2C(=O)c2cnc3n[nH]c(C)c3c2)n1 (stereo not given)	1.22
CCOC(=O)CC1(Nc2nc(C)nc3c2cnn3C)CCCCC1	-18
CN(CCCc1nccn1C)C(=O)C1CCN(C(=O)C2CCCC2)CC1	4.09
CC(SCC(=O)NC(N)=O)c1ccc(Cl)cc1 (stereo not given)	-9.52
O=C(CN1CC(c2ccccc2)CC1=O)N1CCN(c2nccs2)CC1 (stereo not given)	-6.92

Compound	cytotoxicity at 70.5 h [%]
N#Cc1cc2n(n1)CCN(C(=O)CCc1c[nH]c3ccccc13)C2	-10.2
CCNS(=O)(=O)c1ccc2c(c1)c(=O)n(CC)c(=O)n2CC	2
c1ccc(NCc2ccc(Cn3ccnc3)cc2)nc1	41.7
COc1cccc(C(=O)C2CCCN(c3nccc(N)n3)C2)c1 (stereo not given)	-3.78
CNS(=O)(=O)c1cccc(C(C)NCc2ccco2)c1 (stereo not given)	-8.45
CN(C)c1ncc(C(=O)N2C[C@H]3C[C@H](Oc4ccccc4)C[C@H]3C2)cn1	-0.787
CN(Cc1cnn(C)c1)C(=O)c1cc2ccccc2c(=O)[nH]1	-9.32
CC(C)NC(=O)[C@@H]1CCO[C@@H]2CCN(c3ncccn3)C[C@H]21	0.612
Cc1cc(Br)oc1C(=O)N1CCCN(CC(N)=O)CC1	-7.35
Cc1nc2n(n1)CC(NCc1csc(-c3ccsc3)n1)CC2 (stereo not given)	-8.64
CC(=O)N1CCCC1C(=O)NCCOc1c(C)cccc1C (stereo not given)	-1.77
COC(=O)c1ccccc1S(=O)(=O)NC(=O)c1cccc2c1OCCO2	-100
CCC[C@@H]1CN(Cc2c[nH]nc2-c2ccc(F)cc2)C[C@H]1NS(C)(=O)=O	-3.18
c1ccc(CCN2CCN(C3CCOC4(CCOCC4)C3)CC2)nc1 (stereo not given)	-9.08
CC1CCCN1Cc1cccc(C(=O)Nc2ccc3[nH]c(=O)oc3c2)c1 (stereo not given)	30.6
Cc1oncc1C(=O)N1CC2CC1(C(=O)NCc1ccco1)C2	-10.9
Cc1ccc(CN2CCC3(CCCN(C(=O)N(C)C)C3)C2)cc1 (stereo not given)	-6.47
Cc1cccnc1CN1CCN(Cc2ccc(-c3cc[nH]n3)o2)CC1	-7.65
COCC1c2c(cnn2C)CCN1Cc1ccsc1 (stereo not given)	-22.9
O=C1NC2(CCN(Cc3ccoc3)CC2)CC1c1ccncc1 (stereo not given)	11
CC(C)Oc1cc(N2CCC(C(N)=O)CC2)nc(N)n1	-3.58
CC(C)CN1C[C@H]2N(c3ncccn3)CCC[C@@]2(C(=O)NCC2CC2)C1	-3.44
CC(C)OCCC(=O)NCC(O)c1c(Cl)cccc1Cl (stereo not given)	-3.94
CN(C)C(=O)N1CCc2c(nnn2C)C1COCC1CC1 (stereo not given)	-2.28
Cc1nc(CN2C[C@@H](NC(=O)C3CCC3)[C@H]3COC[C@H]32)cs1	-5.49
CC(C)S(=O)(=O)N1C[C@@H](O)[C@H](N(C)Cc2ccc(F)cc2)C1	0.65
CC(=O)N1CCCN(C(=O)NC(C)Cn2ccnc2)CC1 (stereo not given)	-4.31

Compound	cytotoxicity at 70.5 h [%]
CC(C)c1nnc2n1CC(CNCc1nc3ccccc3s1)CC2 (stereo not given)	21.9
COc1cc(NC(=O)NC2CCCC2)ccc1N1CCOC1=O	-8.76
Clc1ccc(CN2CCCCC2Cn2cncn2)c2ncccc12 (stereo not given)	-0.976
COCc1cc(NCc2ccccc2OC)ncn1	-7.89
COc1cc(C(=O)N(Cc2cnn(C)c2)C(C)C)ccc1OC(C)C	3.17
COCCCC1(C(=O)O)CCCN(Cc2cc3c(cc2C)OCCO3)C1 (stereo not given)	-8.65
CCn1c(C)cc(C(=O)N2CCCC(C(=O)c3nccn3C)C2)c1C (stereo not given)	19.6
Cc1cc(CN2C[C@H]3CC[C@@H]2CN(Cc2[nH]cnc2C)C3)on1	-6.39
COCCN1CCC(CNC(=O)c2cc(C)cc(C)c2)C1 (stereo not given)	-11.9
N#CC1(NC(=O)COC(=O)Cn2cccn2)CCCC1	-7.86
CCC(O)CN1CCN(C(=O)c2cc3ccccc3n2CC)CC1 (stereo not given)	12.7
O=S(=O)(CCCN1CCCC1Cn1cccn1)c1ccccc1 (stereo not given)	-11.1
CCN(CC1CCOC1)C(=O)Nc1ccc(N2CCCCC2)nc1 (stereo not given)	-1.47
COc1cc(NC(=O)C2CC(=O)N(c3cccc(F)c3)C2)ncn1 (stereo not given)	-3.43
CN(Cc1ccncn1)C(=O)C1(Oc2ccc(Cl)cc2)CCNCC1	-4.8
Cc1cc(C(=O)N2CCCC(c3nccn3C)C2)cc(S(N)(=O)=O)c1C (stereo not given)	-5.68
Cc1nnc2ccc(C(=O)N3CCSC(C)(C)C3)cn12	11.4
Cc1noc(C)c1CNC(=O)N(C)C1CCN(c2ccccc2)C1=O (stereo not given)	-2.2
CCC(=O)N1CCC2(CC1)C(c1cccnc1)CC(=O)N2CCOC (stereo not given)	1.53
O=S1(=O)CCCN1Cc1coc(-c2ccc(C(F)(F)F)cc2)n1	11
CCOCCCNC(=O)c1cc(C)nc(N2CCCC2)n1	21.7
NC(=O)CSc1ccccc1NC(=O)C1CCCC1	-5.87
CCn1nc(-c2ccccc2F)ccc1=O	-8.76
Cc1nc(C)n(CC2CCCN(CC3CCCCC3)C2)n1 (stereo not given)	-1.64
O=C1N(c2ccc(Cl)cc2)Cc2n[nH]c(=O)n21	-2.4
CN1CCN(S(=O)(=O)c2cccc(S(=O)(=O)C3CCS(=O)(=O)C3)c2)CC1 (stereo not given)	-11.1
